The source of these data is patent publication US10730889B2, “Amido spirocyclic amide and sulfonamide derivatives” (Forma TM, LLC, priority 2012, dated 2020).

One test deals with A2780 cells. Description: In-vitro cell proliferation assay (SRB, 72 hours). Type of test: cell-based. The following applies: A2780 cells, 72 hours, SRB; read-out: Cell Proliferation (IC50).
On to `Cc1nc(C)c(C(=O)N2CCC3(CC2)CC3CNC(=O)c2cc3ccncc3o2)o1` (stereo not drawn) [Example 385, N-[[6-(2,4-dimethyloxazole-5-carbonyl)-6-azaspiro[2.5]octan-2-yl]methyl]furo[2,3-c]pyridine-2-carboxamide], for which the IC50 worked out at 17.1 nM.
Same read-out and setting: as for “N-[[6-(2,2- dimethylcyclopropanecarbonyl)- 6-azaspiro[2.5]octan-2- yl]methyl]furo[2,3-c]pyndine-2- carboxamide [Example 373]”, the figure is 7.03 nM.

Still in this test, the particulars now being: Homo sapiens, A2780, 72 h, A2780 cells, 72 hours, SRB; read-out: Cell Proliferation (IC50).
As for `Cn1nc(C(=O)N2CCC3(CC2)CC3CNC(=O)c2cc3ccncc3o2)cc1C(F)(F)F` (stereo not drawn) [Example 131, N-[[6-[1-methyl-5-(trifluoromethyl]pyrazole-3-carbonyl]-6-azaspiro[2.5]octan-2-yl]methyl]furo[2,3-c]pyridine-2-carboxamide], the IC50 stood at 326 nM.
On the same count and under the same terms, then `Cc1nc(C)c(C(=O)N2CCC3(CC2)CC3CNC(=O)c2cc3cnccc3[nH]2)o1` (stereo not drawn) [Example 370, N-[[6-(2,4-dimethyloxazole-5-carbonyl)-6-azaspiro[2.5]octan-2-yl]methyl]-1H-pyrrolo[3,2-c]pyridine 2-carboxamide], with 115 nM; and `CC1(C)CC1C(=O)N1CCC2(CC1)CC2CNC(=O)c1cc2ccncc2o1` (stereo not drawn) [Example 371, N-[[6-(2,2-dimethylcyclopropanecarbonyl)-6-azaspiro[2.5]octan-2-yl]methyl]furo[2,3-c]pyridine-2-carboxamide], with 30.2 nM.
With `CN1CCN(C(=O)c2ccc(C(=O)N3CCC4(CC3)CC4CNC(=O)N3Cc4ccncc4C3)cc2)CC1` (stereo not drawn) [Example 372, N-[[6-[4-(4-methylpiperazine-1-carbonyl)benzoyl]-6-azaspiro[2.5]octan-2-yl]methyl]-1,3-dihydropyrrolo[3,4-c]pyridine-2-carboxamide], the IC50 was determined as 27.5 nM.
Still for that read-out and setting: as for `CC1(OC(=O)N2CCC3(CC2)CC3CNC(=O)N2Cc3ccncc3C2)CCOC1` (stereo not drawn) [Example 375, (3-methyltetrahydrofuran-3-yl) 2-[(1,3-dihydropyrrolo[3,4-c]pyridine-2-carbonylamino)methyl]-6-azaspiro[2.5]octane-6-carboxylate], the figure is 1.11 nM; as for `CC(C)(O)COC(=O)N1CCC2(CC1)CC2CNC(=O)N1Cc2ccncc2C1` (stereo not drawn) [Example 376, (2-hydroxy-2-methyl-propyl) 2-[(1,3-dihydropyrrolo[3,4-c]pyridine-2-carbonylamino)methyl]-6-azaspiro[2.5]octane-6-carboxylate], 16.1 nM; as for `CC(C)(C)CS(=O)(=O)N1CCC2(CC1)CC2CNC(=O)c1cc2ccncc2o1` (stereo not drawn) [Example 378, N-[[6-(2,2-dimethylpropylsulfonyl)-6-azaspiro[2.5]octan-2-yl]methyl]furo[2,3-c]pyridine-2-carboxamide], 2000 nM.
On the same count and under the same terms, as for `CC(C)(C)CS(=O)(=O)N1CCC2(CC1)CC2CNC(=O)c1cc2cnccc2[nH]1` (stereo not drawn) [Example 379, N-[[6-(2,2-dimethylpropylsulfonyl)-6-azaspiro[2.5]octan-2-yl]methyl]-1H-pyrrolo[3,2-c]pyridine-2-carboxamide], the figure is 2000 nM; as for `CC(C)(C)OC(=O)N1CCC2(CC1)CC2CNC(=O)c1cnn2nccc2c1` (stereo not drawn) [Example 383, tert-Butyl 2-[(pyrazolo[1,5-b]pyridazine-5-carbonylamino)methyl]-6-azaspiro[2.5]octane-6-carboxylate], 2000 nM; as for `CC(C)(O)COCC(=O)N1CCC2(CC1)CC2CNC(=O)c1cc2cnccc2[nH]1` (stereo not drawn) [Example 387, N-[[6-[2-(2-hydroxy-2-methyl-propoxy)acetyl]-6-azaspiro[2.5]octan-2-yl]methyl]-1H-pyrrolo[3,2-c]pyridine-2-carboxamide], 535 nM.
The same measure, in the same setting: then `Cc1nc(C(F)(F)F)c(C(=O)N2CCC3(CC2)CC3CNC(=O)N2Cc3ccncc3C2)s1` (stereo not drawn) [Example 388, N-[[6-[2-methyl-4-(trifluoromethyl]thiazole-5-carbonyl]-6-azaspiro[2.5]octan-2-yl]methyl]-1,3-dihydropyrrolo[3,4-c]pyridine-2-carboxamide], with 1.26 nM.
As to `CC1(C)CC1C(=O)N1CCC2(CC1)CC2CNC(=O)N1Cc2ccncc2C1` (stereo not drawn) [Example 389, N-[[6-(2,2-dimethylcyclopropanecarbonyl)-6-azaspiro[2.5]octan-2-yl]methyl]-1,3-dihydropyrrolo[3,4-c]pyridine-2-carboxamide], the IC50 was found to be 0.575 nM.
As for `CC(C)(C)OC(=O)N1CCC2(CC1)CC2CNC(=O)NCc1ccc2nccn2c1` (stereo not drawn) [Example 392, tert-butyl 2-[(imidazo[1,2-a]pyridin-6-ylmethylcarbamoylamino)methyl]-6-azaspiro[2.5]octane-6-carboxylate], the IC50 was determined as 2000 nM.
Same read-out and setting: then `Nc1ccc(CC(=O)N2CCC3(CC2)CC3CNC(=O)N2Cc3ccncc3C2)cn1` (stereo not drawn) [Example 394, N-[[6-[2-(6-Amino-3-pyridyl)acetyl]-6-azaspiro[2.5]octan-2-yl]methyl]-1,3-dihydropyrrolo[3,4-c]pyridine-2-carboxamide], with 14.5 nM; and `O=C(NCC1CC12CCN(C(=O)N1CCOCC1)CC2)N1Cc2ccncc2C1` (stereo not drawn) [Example 395, N-[[6-(morpholine-4-carbonyl)-6-azaspiro[2.5]octan-2-yl]methyl]-1,3-dihydropyrrolo[3,4-c]pyridine-2-carboxamide], with 24.3 nM.
For `CC(C)(O)CCC(=O)N1CCC2(CC1)CC2CNC(=O)c1cc2cnccc2[nH]1` (stereo not drawn) [Example 397, N-[[6-(4-hydroxy-4-methyl-pentanoyl)-6-azaspiro[2.5]octan-2-yl]methyl]-1H-pyrrolo[3,2-c]pyridine-2-carboxamide], the IC50 stood at 888 nM.
Same read-out and setting: as for `O=C(NCC1CC12CCN(C(=O)c1cnccc1C(F)(F)F)CC2)N1Cc2ccncc2C1` (stereo not drawn) [Example 398, N-[[6-[4-(trifluoromethyl]pyridine-3-carbonyl]-6-azaspiro[2.5]octan-2-yl]methyl]-1,3-dihydropyrrolo[3,4-c]pyridine-2-carboxamide], the figure is 0.722 nM; as for `CC1(O)CC(CC(=O)N2CCC3(CC2)CC3CNC(=O)c2cc3cnccc3[nH]2)C1` (stereo not drawn) [Example 400, N-[[6-[2-(3-hydroxy-3-methyl-cyclobutyl)acetyl]-6-azaspiro[2.5]octan-2-yl]methyl]-1H-pyrrolo[3,2-c]pyridine-2-carboxamide], 222 nM.
Same read-out and setting: then `CC(C)(C)OC(=O)N1CCC2(CC1)CC2CNC(=O)c1ccc2nccn2n1` (stereo not drawn) [Example 402, tert-butyl 2-[(imidazo[1,2-b]pyridazine-6-carbonylamino)methyl]-6-azaspiro[2.5]octane-6-carboxylate], with 2000 nM; and `CC1(CC(=O)N2CCC3(CC2)CC3CNC(=O)N2Cc3ccncc3C2)CCN(CC(F)(F)F)CC1` (stereo not drawn) [Example 403, N-[[6-[2-[4-Methyl-1-(2,2,2-trifluoroethyl)-4-piperidyl]acetyl]-6-azaspiro[2.5]octan-2-yl]methyl]-1,3-dihydropyrrolo[3,4-c]pyridine-2-carboxamide], with 2.9 nM.
The same measure, in the same setting: as for `CC(C)(C)OC(=O)N1CCC2(CC1)CC2CNC(=O)N1Cc2cnc(N)cc2C1` (stereo not drawn) [Example 406], the figure is 2000 nM; as for `O=C(Cc1cncnc1)N1CCC2(CC1)CC2CNC(=O)N1Cc2ccncc2C1` (stereo not drawn) [Example 407, N-[[6-(2-pyrimidin-5-ylacetyl)-6-azaspiro[2.5]octan-2-yl]methyl]-1,3-dihydropyrrolo[3,4-c]pyridine-2-carboxamide], 72.6 nM; as for `O=C(NCC1CC12CCN(C(=O)c1ccccc1)CC2)c1cc2ccncc2o1` (stereo not drawn) [Example 411, N-((6-benzoyl-6-azaspiro[2.5]octan-2-yl)methyl]furo[2,3-c]pyridine-2-carboxamide], 2000 nM.
For `Cc1ncoc1C(=O)N1CCC2(CC1)CC2CNC(=O)N1Cc2ccncc2C1` (stereo not drawn) [Example 415, N-[[6-(4-methyloxazole-5-carbonyl)-6-azaspiro[2.5]octan-2-yl]methyl]-1,3-dihydropyrrolo[3,4-c]pyridine-2-carboxamide], the IC50 came to 14.2 nM.
Same read-out and setting: then `CC(C)OC(=O)N1CCC2(CC1)CC2CNC(=O)c1cc2ccncc2o1` (stereo not drawn) [Example 416, isopropyl 2-[(furo[2,3-c]pyridine-2-carbonylamino)methyl]-6-azaspiro[2.5]octane-6-carboxylate], with 461 nM; and `CC1(OC(=O)N2CCC3(CC2)CC3CNC(=O)c2cc3ccncc3o2)COC1` (stereo not drawn) [Example 417, (3-methyloxetan-3-yl) 2-[(furo[2,3-c]pyridine-2-carbonylamino)methyl]-6-azaspiro[2.5]octane-6-carboxylate], with 830 nM.

The target of another test is NAMPT (Homo sapiens (Human), UniProt P43490). Kind of test: Biochemical inhibition assay (NAMPT enzymatic reaction, NMN quantified by mass spectrometry).
Sequence of NAMPT (P43490 whole entry): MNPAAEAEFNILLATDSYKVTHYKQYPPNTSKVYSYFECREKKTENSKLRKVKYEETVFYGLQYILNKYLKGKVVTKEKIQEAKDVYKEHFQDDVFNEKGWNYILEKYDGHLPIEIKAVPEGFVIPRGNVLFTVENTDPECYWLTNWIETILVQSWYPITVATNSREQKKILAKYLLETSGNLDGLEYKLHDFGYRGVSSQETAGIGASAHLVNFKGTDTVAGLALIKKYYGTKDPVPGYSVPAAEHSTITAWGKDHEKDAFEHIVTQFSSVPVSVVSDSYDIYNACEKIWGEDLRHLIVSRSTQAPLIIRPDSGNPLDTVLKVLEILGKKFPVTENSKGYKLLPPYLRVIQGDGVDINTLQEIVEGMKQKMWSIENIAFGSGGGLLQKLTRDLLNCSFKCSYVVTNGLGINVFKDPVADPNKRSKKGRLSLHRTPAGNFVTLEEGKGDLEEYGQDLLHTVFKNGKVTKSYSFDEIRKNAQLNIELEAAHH
Conditions: not given
`Cn1nc(C(=O)N2CCC3(CC2)CC3CNC(=O)c2cc3ccncc3o2)cc1C(F)(F)F` (stereo not drawn) [Example 131, N-[[6-[1-methyl-5-(trifluoromethyl]pyrazole-3-carbonyl]-6-azaspiro[2.5]octan-2-yl]methyl]furo[2,3-c]pyridine-2-carboxamide] returned an IC50 of 356 nM.
Same read-out and setting: as for `CC(C)(C)OC(=O)N1CCC2(CC1)CC2CNC(=O)c1cnn2nccc2c1` (stereo not drawn) [Example 383, tert-Butyl 2-[(pyrazolo[1,5-b]pyridazine-5-carbonylamino)methyl]-6-azaspiro[2.5]octane-6-carboxylate], the figure is 15.8 nM.
